US9561228B2 (Celgene Avilomics Research, Inc., priority 2013, dated 2017)

What was measured:
[1] = system: ERK1/2 phosphorylation of p90RSK in HCT116 cells; assay: Detection of total and phospho-RSK by MSD ELISA (HCT116); type: cell-based; conditions: Homo sapiens, HCT-116, read-out: ERK1/ERK2 PRSK HCT116 EC50
Method in brief: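 HCT116 cells treated with compound in RPMI/10% FBS for 2 h at 37° C, then lysed. Phospho-RSK (Ser380) and total RSK in lysates measured by MSD sandwich electrochemiluminescence ELISA as a readout of ERK1/2 activity.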

[2] = system: ERK1/2 phosphorylation of p90RSK in HT29 cells; assay: pRSK MSD Assay in HT29 cells; type: cell-based; conditions: Homo sapiens, HT-29, read-out: ERK1/ERK2 PRSK MSD HT29 EC50
Method in brief: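 Serum-starved HT29 cells (0.1% FBS overnight) treated with test compound for 120 min at 37° C, then lysed with protease and phosphatase inhibitors. Phospho-p90RSK quantified by MSD sandwich immunoassay: RSK capture antibody, phospho-RSK detection antibody plus Sulfo-tagged antibody, electrochemiluminescence read.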

[3] = target: T1, Erk1 (Homo sapiens, UniProt P27361); assay: Protein Mass Modification Assay (intact protein MALDI, 60 min, 10-fold excess of compound); type: binding
T1 construct: purchased Millipore 14-439
T1 sequence (P27361 whole entry): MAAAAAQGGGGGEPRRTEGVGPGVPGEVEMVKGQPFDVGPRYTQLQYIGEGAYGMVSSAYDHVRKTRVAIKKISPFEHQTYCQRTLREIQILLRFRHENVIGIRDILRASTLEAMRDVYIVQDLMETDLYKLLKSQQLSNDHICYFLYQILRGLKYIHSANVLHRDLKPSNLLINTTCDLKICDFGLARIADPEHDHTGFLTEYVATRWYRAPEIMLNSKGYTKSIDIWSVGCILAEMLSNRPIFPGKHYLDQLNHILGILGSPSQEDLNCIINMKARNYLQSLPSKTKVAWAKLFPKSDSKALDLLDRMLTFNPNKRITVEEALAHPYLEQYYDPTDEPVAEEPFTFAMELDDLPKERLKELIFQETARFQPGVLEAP
Method in brief: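 Human Erk1 was incubated 60 min at room temperature with a 10-fold molar excess of compound, then analysed as intact protein by MALDI with sinapinic acid matrix. The centroid mass shift versus untreated protein was divided by compound molecular weight to give percent modified protein.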

| Structure (SMILES) | EC50 [1] [nM] | EC50 [2] [nM] | ERK1 Mass Mod (%) [3] |
| --- | --- | --- | --- |
| C=CC(=O)Nc1c(Nc2nc(Nc3cc(OC)ncc3C)ncc2C(F)(F)F)ccc(C)c1F [Compound I-367, N-(2-fluoro-6-((2-((2-methoxy-5-methylpyridin-4-yl)amino)-5-(trifluoromethyl)pyrimidin-4-yl)amino)-3-methylphenyl)acrylamide] | 501 to 999 | 101 to 500 | E (a mass modification of ≧70%) |
| C=CC(=O)Nc1cc(C)ccc1Nc1nc(Nc2nc(OC)ncc2C)ncc1C(F)(F)F [Compound I-347, N-(2-((2-((2-methoxy-5-methylpyrimidin-4-yl)amino)-5-(trifluoromethyl)pyrimidin-4-yl)amino)-5-methylphenyl)acrylamide] | 101 to 500 | < 100 | E (a mass modification of ≧70%) |
| C=CC(=O)Nc1cc(CN2CCN(C)CC2)ccc1Nc1nc(Nc2nc(OC)ncc2C)ncc1C(F)(F)F [Compound I-394, N-(2-((2-((2-methoxy-5-methylpyrimidin-4-yl)amino)-5-(trifluoromethyl)pyrimidin-4-yl)amino)-5-((4-methylpiperazin-1-yl)methyl)phenyl)acrylamide] | 501 to 999 | 501 to 999 | E (a mass modification of ≧70%) |
| C=CC(=O)Nc1cc(C)ccc1Nc1nc(Nc2nc(OC)ccc2Cl)ncc1C(F)(F)F [Compound I-360, N-(2-((2-((3-chloro-6-methoxypyridin-2-yl)amino)-5-(trifluoromethyl)pyrimidin-4-yl)amino)-5-methylphenyl)acrylamide] | 501 to 999 | 101 to 500 | E (a mass modification of ≧70%) |
| C=CC(=O)Nc1cc(C)ccc1Nc1nc(Nc2cc(-c3nc[nH]n3)ccc2C)ncc1C(F)(F)F [Compound I-373, N-(5-methyl-2-((2-((2-methyl-5-(1H-1,2,4-triazol-3-yl)phenyl)amino)-5-(trifluoromethyl)pyrimidin-4-yl)amino)phenyl)acrylamide] | 501 to 999 | 101 to 500 | F (a mass modification of 31-69%) |
| C=CC(=O)Nc1cc(CN2CCN(S(C)(=O)=O)CC2)ccc1Nc1nc(Nc2nc(OC)ncc2C)ncc1C(F)(F)F [Compound I-383, N-(2-((2-((2-methoxy-5-methylpyrimidin-4-yl)amino)-5-(trifluoromethyl)pyrimidin-4-yl)amino)-5-((4-(methylsulfonyl)piperazin-1-yl)methyl)phenyl)acrylamide] | 101 to 500 | < 100 | E (a mass modification of ≧70%) |
| C=CC(=O)Nc1cc(CN2CCN(C(=O)c3cccnc3)CC2)ccc1Nc1nc(Nc2nc(OC)ncc2C)ncc1C(F)(F)F [Compound I-392, N-(2-((2-((2-methoxy-5-methylpyrimidin-4-yl)amino)-5-(trifluoromethyl)pyrimidin-4-yl)amino)-5-((4-nicotinoylpiperazin-1-yl)methyl)phenyl)acrylamide] | > 1000 | 501 to 999 | E (a mass modification of ≧70%) |
| C=CC(=O)Nc1cc(CCC(N)=O)ccc1Nc1nc(Nc2cc(OC)ncc2C)ncc1C(F)(F)F [Compound I-400, N-(5-(3-amino-3-oxopropyl)-2-((2-((2-methoxy-5-methylpyridin-4-yl)amino)-5-(trifluoromethyl)pyrimidin-4-yl)amino)phenyl)acrylamide] | < 100 | < 100 | E (a mass modification of ≧70%) |
| C=CC(=O)Nc1cc(C)ccc1Nc1nc(Nc2nc(O)ncc2C)ncc1C(F)(F)F [Compound I-364, N-(2-((2-((2-hydroxy-5-methylpyrimidin-4-yl)amino)-5-(trifluoromethyl)pyrimidin-4-yl)amino)-5-methylphenyl)acrylamide] | 101 to 500 | < 100 | E (a mass modification of ≧70%) |
| C=CC(=O)Nc1cc(C)ccc1Nc1nc(Nc2cc(OCCOC)ncc2C)ncc1C(F)(F)F [Compound I-359, N-(2-((2-((2-(2-methoxyethoxy)-5-methylpyridin-4-yl)amino)-5-(trifluoromethyl)pyrimidin-4-yl)amino)-5-methylphenyl)acrylamide] | 501 to 999 | 101 to 500 | E (a mass modification of ≧70%) |
| C=CC(=O)Nc1cc(CN2CCN(C(C)=O)CC2)ccc1Nc1nc(Nc2cc(OC)ncc2C)ncc1C(F)(F)F [Compound I-381, N-(5-((4-acetylpiperazin-1-yl)methyl)-2-((2-((2-methoxy-5-methylpyridin-4-yl)amino)-5-(trifluoromethyl)pyrimidin-4-yl)amino)phenyl)acrylamide] | < 100 | < 100 | E (a mass modification of ≧70%) |
| C=CC(=O)Nc1cc(C)ccc1Nc1nc(Nc2cc(OC)ncc2Cl)ncc1C(F)(F)F [Compound I-351, N-(2-((2-((5-chloro-2-methoxypyridin-4-yl)amino)-5-(trifluoromethyl)pyrimidin-4-yl)amino)-5-methylphenyl)acrylamide] | 501 to 999 | 101 to 500 | F (a mass modification of 31-69%) |
| C=CC(=O)Nc1cc(C)ccc1Nc1nc(Nc2cc(OCCO)ncc2C)ncc1C(F)(F)F [Compound I-376, N-(2-((2-((2-(2-hydroxyethoxy)-5-methylpyridin-4-yl)amino)-5-(trifluoromethyl)pyrimidin-4-yl)amino)-5-methylphenyl)acrylamide] | < 100 | < 100 | E (a mass modification of ≧70%) |
| C=CC(=O)Nc1cc(C)ccc1Nc1nc(Nc2c[nH]c(=O)cc2C)ncc1C(F)(F)F [Compound I-370, N-(5-methyl-2-((2-((4-methyl-6-oxo-1,6-dihydropyridin-3-yl)amino)-5-(trifluoromethyl)pyrimidin-4-yl)amino)phenyl)acrylamide] | 501 to 999 | 501 to 999 | E (a mass modification of ≧70%) |
| C=CC(=O)Nc1cc(C)ccc1Nc1nc(Nc2cc(-c3c[nH]cn3)ccc2C)ncc1C(F)(F)F [Compound I-378, N-(2-((2-((5-(1H-imidazol-4-yl)-2-methylphenyl)amino)-5-(trifluoromethyl)pyrimidin-4-yl)amino)-5-methylphenyl)acrylamide] | > 1000 | 101 to 500 | E (a mass modification of ≧70%) |
| C=CC(=O)Nc1cc(CN2CCOCC2)ccc1Nc1nc(Nc2cc(OC)ncc2C)ncc1C(F)(F)F [Compound I-399, N-(2-((2-((2-methoxy-5-methylpyridin-4-yl)amino)-5-(trifluoromethyl)pyrimidin-4-yl)amino)-5-(morpholinomethyl)phenyl)acrylamide] | 101 to 500 | 501 to 999 | E (a mass modification of ≧70%) |
| C=CC(=O)Nc1cc(OCCN)ccc1Nc1nc(Nc2cc(OC)ncc2C)ncc1C(F)(F)F [Compound I-396, N-(5-(2-aminoethoxy)-2-((2-((2-methoxy-5-methylpyridin-4-yl)amino)-5-(trifluoromethyl)pyrimidin-4-yl)amino)phenyl)acrylamide] | 101 to 500 | 101 to 500 | E (a mass modification of ≧70%) |
| C=CC(=O)Nc1cc(C)ccc1Nc1nc(Nc2nc(OC)ncc2C(F)(F)F)ncc1C(F)(F)F [Compound I-355, N-(2-((2-((2-methoxy-5-(trifluoromethyl)pyrimidin-4-yl)amino)-5-(trifluoromethyl)pyrimidin-4-yl)amino)-5-methylphenyl)acrylamide] | 101 to 500 | 101 to 500 | E (a mass modification of ≧70%) |
| C=CC(=O)Nc1cc(C)ccc1Nc1nc(Nc2cc(OC)ncc2C(F)F)ncc1C(F)(F)F [Compound I-431, N-(2-((2-((5-(difluoromethyl)-2-methoxypyridin-4-yl)amino)-5-(trifluoromethyl)pyrimidin-4-yl)amino)-5-methylphenyl)acrylamide] | 501 to 999 | 101 to 500 | E (a mass modification of ≧70%) |
| C=CC(=O)Nc1cc(CN2CCN(S(C)(=O)=O)CC2)ccc1Nc1nc(Nc2cc(OC)ncc2C)ncc1C(F)(F)F [Compound I-384, N-(2-((2-((2-methoxy-5-methylpyridin-4-yl)amino)-5-(trifluoromethyl)pyrimidin-4-yl)amino)-5-((4-(methylsulfonyl)piperazin-1-yl)methyl)phenyl)acrylamide] | < 100 | < 100 | E (a mass modification of ≧70%) |
| C=CC(=O)Nc1cc(C)c(F)cc1Nc1nc(Nc2nc(OC)ncc2C)ncc1C(F)(F)F [Compound I-377, N-(4-fluoro-2-((2-((2-methoxy-5-methylpyrimidin-4-yl)amino)-5-(trifluoromethyl)pyrimidin-4-yl)amino)-5-methylphenyl)acrylamide] | < 100 | < 100 | E (a mass modification of ≧70%) |
| C=CC(=O)Nc1cc(C)ccc1Nc1nc(Nc2cnc(OC)cc2C)ncc1C(F)(F)F [Compound I-350, N-(2-((2-((6-methoxy-4-methylpyridin-3-yl)amino)-5-(trifluoromethyl)pyrimidin-4-yl)amino)-5-methylphenyl)acrylamide] | > 1000 | > 1000 | F (a mass modification of 31-69%) |
